Measured values published in ChEMBL document CHEMBL1201862, “PubChem BioAssay data set” (2004).
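96-well plates; 48 h exposure; 5 concentrations. Endpoints by linear interpolation between flanking doses. Not reached: highest tested concentration assigned. GI50: concentration for 50% inhibition of growth.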 Activity calls are given as the source filed them. Rule as the data show it: active = GI50 up to about 1.1 µM and inactive = higher.

Legend:
Test in all cases: NCI tumour cell line growth inhibition, 48 h
BT-549 = test system: BT-549
MDA-MB-231 = test system: MDA-MB-231
SK-MEL-2 = test system: SK-MEL-2
EKVX = test system: EKVX
RPMI-8226 = test system: RPMI-8226
HOP-92 = test system: HOP-92
MDA-N = test system: MDA-N
NCI-H522 = test system: NCI-H522
SN12C = test system: SN12C
SK-MEL-5 = test system: SK-MEL-5
SF-268 = test system: SF-268
A498 = test system: A498
TK-10 = test system: TK-10
OVCAR-4 = test system: OVCAR-4
M14 = test system: M14
DU-145 = test system: DU-145
KM12 = test system: KM12
PC-3 = test system: PC-3
786-0 = test system: 786-0
T47D = test system: T47D
CAKI-1 = test system: CAKI-1
UO-31 = test system: UO-31
NCI/ADR-RES = test system: NCI/ADR-RES
UACC-62 = test system: UACC-62
ACHN = test system: ACHN
NCI-H460 = test system: NCI-H460
HOP-62 = test system: HOP-62
HCT-15 = test system: HCT-15
SF-295 = test system: SF-295
OVCAR-3 = test system: OVCAR-3
SNB-19 = test system: SNB-19
A549 = test system: A549
SNB-75 = test system: SNB-75
HCC 2998 = test system: HCC 2998
Malme-3M = test system: Malme-3M
HCT-116 = test system: HCT-116
SK-MEL-28 = test system: SK-MEL-28
NCI-H226 = test system: NCI-H226
U-251 = test system: U-251
NCI-H23 = test system: NCI-H23
SK-OV-3 = test system: SK-OV-3
MCF7 = test system: MCF7
UACC-257 = test system: UACC-257
OVCAR-5 = test system: OVCAR-5
COLO 205 = test system: COLO 205
MDA-MB-435 = test system: MDA-MB-435
K562 = test system: K562
SF-539 = test system: SF-539
MOLT-4 = test system: MOLT-4
OVCAR-8 = test system: OVCAR-8
IGROV-1 = test system: IGROV-1
RXF 393 = test system: RXF 393
LOX IMVI = test system: LOX IMVI
HT-29 = test system: HT-29
SW-620 = test system: SW-620
CCRF-CEM = test system: CCRF-CEM
HL-60 = test system: HL-60
SR = test system: SR

## C[Si](C)(C)c1ccc(-c2c3ccc(-c4cc(Br)cc(Br)c4)nc3nc3nc(-c4cc(Br)cc(Br)c4)ccc23)cc1
BT-549
  GI50: > 100 µM (inactive)
MDA-MB-231
  GI50: > 100 µM (inactive)
SK-MEL-2
  GI50: > 100 µM (inactive)
EKVX
  GI50: > 100 µM (inactive)
RPMI-8226
  GI50: > 100 µM (inactive)
HOP-92
  GI50: > 100 µM (inactive)
MDA-N
  GI50: > 100 µM (inactive)
NCI-H522
  GI50: > 100 µM (inactive)
SN12C
  GI50: > 100 µM (inactive)
SK-MEL-5
  GI50: > 100 µM (inactive)
SF-268
  GI50: > 100 µM (inactive)
A498
  GI50: > 100 µM (inactive)
TK-10
  GI50: > 100 µM (inactive)
OVCAR-4
  GI50: > 100 µM (inactive)
M14
  GI50: > 100 µM (inactive)
DU-145
  GI50: > 100 µM (inactive)
KM12
  GI50: > 100 µM (inactive)
PC-3
  GI50: > 100 µM (inactive)
786-0
  GI50: > 100 µM (inactive)
T47D
  GI50: > 100 µM (inactive)
CAKI-1
  GI50: > 100 µM (inactive)
UO-31
  GI50: > 100 µM (inactive)
NCI/ADR-RES
  GI50: > 100 µM (inactive)
UACC-62
  GI50: > 100 µM (inactive)
ACHN
  GI50: > 100 µM (inactive)
NCI-H460
  GI50: > 100 µM (inactive)
HOP-62
  GI50: > 100 µM (inactive)
HCT-15
  GI50: > 100 µM
SF-295
  GI50: > 100 µM (inactive)
OVCAR-3
  GI50: > 100 µM (inactive)
SNB-19
  GI50: > 100 µM (inactive)
A549
  GI50: > 100 µM (inactive)
SNB-75
  GI50: > 100 µM (inactive)
HCC 2998
  GI50: > 100 µM (inactive)
Malme-3M
  GI50: > 100 µM (inactive)
HCT-116
  GI50: > 100 µM (inactive)
SK-MEL-28
  GI50: > 100 µM (inactive)
NCI-H226
  GI50: > 100 µM (inactive)
U-251
  GI50: > 100 µM (inactive)
NCI-H23
  GI50: > 100 µM (inactive)
SK-OV-3
  GI50: > 100 µM (inactive)
MCF7
  GI50: > 100 µM (inactive)
UACC-257
  GI50: > 100 µM (inactive)
OVCAR-5
  GI50: > 100 µM (inactive)
COLO 205
  GI50: > 100 µM (inactive)
MDA-MB-435
  GI50: > 100 µM (inactive)

## CN(C)/N=N/c1nc2c(c(=O)n(C)c(=O)n2C)n1CC1CO1 (configuration not stated)
BT-549
  GI50: 17.1 µM (inactive)
MDA-MB-231
  GI50: 16.9 µM (inactive)
SK-MEL-2
  GI50: 10.7 µM (inactive)
EKVX
  GI50: 22.4 µM (inactive)
RPMI-8226
  GI50: 23.8 µM (inactive)
MDA-N
  GI50: 19.9 µM (inactive)
NCI-H522
  GI50: 14.1 µM (inactive)
SN12C
  GI50: 15.7 µM (inactive)
SK-MEL-5
  GI50: 12.9 µM (inactive)
SF-268
  GI50: 11.6 µM (inactive)
K562
  GI50: 19.2 µM (inactive)
SF-539
  GI50: 7.1 µM (inactive)
TK-10
  GI50: 11.9 µM (inactive)
OVCAR-4
  GI50: 15.7 µM (inactive)
M14
  GI50: 15.8 µM (inactive)
DU-145
  GI50: 14.4 µM (inactive)
KM12
  GI50: 13.4 µM (inactive)
PC-3
  GI50: 20.7 µM (inactive)
MOLT-4
  GI50: 12.3 µM (inactive)
786-0
  GI50: 16.6 µM (inactive)
OVCAR-8
  GI50: 14.5 µM (inactive)
T47D
  GI50: 18.4 µM (inactive)
CAKI-1
  GI50: 13.9 µM (inactive)
UO-31
  GI50: 14.5 µM (inactive)
NCI/ADR-RES
  GI50: 16.6 µM (inactive)
UACC-62
  GI50: 12.4 µM (inactive)
ACHN
  GI50: 10.8 µM (inactive)
NCI-H460
  GI50: 10.1 µM (inactive)
IGROV-1
  GI50: 11.7 µM (inactive)
HOP-62
  GI50: 12.1 µM (inactive)
HCT-15
  GI50: 14.2 µM
SF-295
  GI50: 17 µM (inactive)
RXF 393
  GI50: 2.88 µM (inactive)
LOX IMVI
  GI50: 8.43 µM (inactive)
OVCAR-3
  GI50: 15.8 µM (inactive)
HT-29
  GI50: 13.6 µM (inactive)
SNB-19
  GI50: 19.9 µM (inactive)
A549
  GI50: 20 µM (inactive)
SNB-75
  GI50: 11.7 µM (inactive)
HCC 2998
  GI50: 12.7 µM (inactive)
Malme-3M
  GI50: 9.18 µM (inactive)
HCT-116
  GI50: 11.7 µM (inactive)
SW-620
  GI50: 15 µM (inactive)
CCRF-CEM
  GI50: 23.8 µM (inactive)
SK-MEL-28
  GI50: 20.7 µM (inactive)
NCI-H226
  GI50: 8.51 µM (inactive)
U-251
  GI50: 12.5 µM (inactive)
NCI-H23
  GI50: 12.2 µM (inactive)
SK-OV-3
  GI50: 17.2 µM (inactive)
HL-60
  GI50: 4 µM (inactive)
MCF7
  GI50: 5.38 µM (inactive)
UACC-257
  GI50: 16.6 µM (inactive)
OVCAR-5
  GI50: 32 µM (inactive)
COLO 205
  GI50: 14.3 µM (inactive)
MDA-MB-435
  GI50: 16.7 µM (inactive)

## CC12CCCC(O)C1CCC1=CC3(CCC12)SCCS3 (configuration not stated)
BT-549
  GI50: > 10 µM (inactive)
MDA-MB-231
  GI50: > 10 µM (inactive)
RPMI-8226
  GI50: > 10 µM (inactive)
HOP-92
  GI50: > 10 µM (inactive)
MDA-N
  GI50: > 10 µM (inactive)
NCI-H522
  GI50: > 10 µM (inactive)
SN12C
  GI50: > 10 µM (inactive)
SK-MEL-5
  GI50: > 10 µM (inactive)
SF-268
  GI50: > 10 µM (inactive)
K562
  GI50: > 10 µM (inactive)
TK-10
  GI50: > 10 µM (inactive)
OVCAR-4
  GI50: > 10 µM (inactive)
M14
  GI50: > 10 µM (inactive)
DU-145
  GI50: > 10 µM (inactive)
KM12
  GI50: > 10 µM (inactive)
PC-3
  GI50: > 10 µM (inactive)
786-0
  GI50: > 10 µM (inactive)
OVCAR-8
  GI50: > 10 µM (inactive)
T47D
  GI50: > 10 µM (inactive)
CAKI-1
  GI50: > 10 µM (inactive)
NCI/ADR-RES
  GI50: > 10 µM (inactive)
UACC-62
  GI50: > 10 µM (inactive)
ACHN
  GI50: > 10 µM (inactive)
IGROV-1
  GI50: > 10 µM (inactive)
HOP-62
  GI50: > 10 µM (inactive)
HCT-15
  GI50: > 10 µM
SF-295
  GI50: > 10 µM (inactive)
LOX IMVI
  GI50: > 10 µM (inactive)
OVCAR-3
  GI50: > 10 µM (inactive)
HT-29
  GI50: > 10 µM (inactive)
SNB-19
  GI50: > 10 µM (inactive)
A549
  GI50: > 10 µM (inactive)
SNB-75
  GI50: > 10 µM (inactive)
HCC 2998
  GI50: > 10 µM (inactive)
SR
  GI50: > 10 µM (inactive)
Malme-3M
  GI50: > 10 µM (inactive)
SW-620
  GI50: > 10 µM (inactive)
CCRF-CEM
  GI50: 5.83 µM (inactive)
SK-MEL-28
  GI50: > 10 µM (inactive)
U-251
  GI50: > 10 µM (inactive)
NCI-H23
  GI50: > 10 µM (inactive)
SK-OV-3
  GI50: > 10 µM (inactive)
MCF7
  GI50: > 10 µM (inactive)
UACC-257
  GI50: > 10 µM (inactive)
COLO 205
  GI50: > 10 µM (inactive)
MDA-MB-435
  GI50: > 10 µM (inactive)
